# From US20080301822A1, “Role of alpha1-adrenergic receptors” (The Cleveland Clinic Foundation, priority 2005, published 2008)
# Assays:
# CAM α1A-AR neurospheres = experiment: Neurosphere differentiation with phenylephrine, CAM α1A-AR neurospheres; type: cell-based, mouse; details: day 10, FIG. 22B
# Experimental: (§1) Differentiation Assay: The neurospheres were differentiated by withdrawing the growth factors either in the differentiation supplement (stem cell technologies) for embryonic neurospheres or in B-27 medium with 2% serum (for neonatal neurospheres) after dissociating them with the chemical dissociation kit (Stem Cell Technologies). The cells were plated at the density of 2×10^5 cells in 12 well plates and treated with Phenylephrine (10 uM).
# [1] = test system: normal neonatal neurospheres; experiment: Real time PCR of neurogenic genes after phenylephrine stimulation; type: cell-based, mouse; details: FIG. 26
# Experimental: (§2) Real Time PCR. Neurospheres were grown in proliferation or differentiation medium for 1, 3, 7 and 10 days respectively. The neurospheres grown in the proliferation medium were treated with phenlyephrine for the above-mentioned time along with Rauwalscine (0.1 uM) and Propranolol (1 uM). Total RNA was isolated using the RNAesy kit (Quiagen) and 2 ug RNA was reverse transcribed using oligodT primers with Superscript II Reverse Transcriptase (Invitrogen). Quantitative real time PCR was performed in iCycler (Biorad) using iQ SYBR Green Supermix. (Bio-Rad) The cDNA was amplified with primers for various neural stem cell proliferation and differentiation genes like Notch-1, Nestin, Mash-1, NeuroD, Math-1, Mash-1, Ngn-1, Ngn-2, D1x-2, Sox-2 and Zic-1. Samples obtained from three independent experiments were used for analysis of relative gene expression using the 2(-Delta Delta C(T) Method (Livak, K J and Schmittgen, T D, Methods 25:402-408 (2001)) and were normalized to α-Tubulin gene expression as internal control.
# [2] = test system: α1A-KO neonatal neurospheres; experiment: Neurosphere differentiation with phenylephrine, α1A-KO neurospheres; type: cell-based, mouse; details: 10 days, FIG. 23B
# Experimental: (§3) Neurosphere Isolation Periventricular tissue from 1-2 day old pups was removed into HEPES-buffered Eagles' medium. The tissue was diced and incubated with Mg/Ca-free HBSS containing EDTA, trypsin, and DNase. The tissue was washed, centrifuged, and the pellet was triturated in PBS to produce a single-cell suspension and was passed through a 70 um cell strainer. The cells were cultured in B27 media containing heparin, bFGF and EGF until neurosphere development. Neurospheres were dissociated and replated several passages. A single neurosphere was picked, mechanically dissociated, and cloned by dilution.
# as §1
# [3] = test system: normal mouse neurospheres; experiment: Neurosphere differentiation with phenylephrine in proliferation media (+EGF/FGF), immunostaining for MAP2, GFAP, NG2; type: cell-based; details: phenylephrine 10 uM, 3-10 days
# Experimental: as §3
# as §1, with “The neurospheres were differentiated by withdrawing the growth factors either in the differentiation” left out
# [4] = test system: normal embryonic mouse neurospheres; experiment: Differentiation rates (number of live cells) in differentiation media (−EGF/FGF); type: cell-based; details: FIG. 16
# Experimental: Differentiation rates (number of live cells) were also measured in normal neurospheres using differentiation media (−EGF/FGF) with and without phenylephrine.
# as §1
# pyramidal cells = experiment: Action potential generation in pyramidal cells (unpublished data); type: cell-based
# [5] = test system: α1A-AR-EGFP positive hippocampal CA1 interneurons; experiment: Cell-attached patch recordings of spontaneous action potentials in hippocampal slices; type: cell-based, mouse; details: 6FNE 10 μM
# Experimental: Slice Preparation and Cell Identification. Hippocampal brain slices were prepared from α1A-AR-EGFP mice in strict accordance with a protocol approved by the Institutional Animal Care and Use Committee at the University of North Dakota. Mice were deeply anesthetized with isoflurane, sacrificed by decapitation, and their brains rapidly removed and placed in an ice-cold saline solution containing (in mM): 130 NaCl, 24 NaHCO3, 5 KCl, 1.25 NaH2PO4, 0.5 CaCl2, 4 MgCl2 and 10 glucose (saturated with 95% O2-5% CO2). The brain was then sectioned at 250-350 μm thick intervals using a Microm HM 650V vibrating blade microtome (Richard-Allen Scientific, Kalamazoo, Mich.). Slices were incubated at 35° C. for 40 min and then allowed to recover for at least 30 min at room temperature (22±1° C.) before experimentation. Slices were transferred to a PC-H chamber with a coverslip bottom (SD Instruments, Grants Pass, Oreg.) mounted on the fixed stage of an upright microscope (Olympus BX51 WI, Tokyo, Japan) equipped with a filter set for fluorescence imaging of EGFP and IR-DIC optics. Interneurons were visualized using 470 nm and 900 nm light with a water immersion objective (Olympus LUMPlanF1 60×IR) and two CCD cameras (Olympus MagnaFire and Sony XC-75, Tokyo, Japan). Dedicated MagnaFire software and a Hamamatsu C-2400 camera controller (Hamamatsu City, Japan) were used to adjust image quality in GFP and IR-DIC channels, respectively. […]
# Electrophysiological Recordings. […] Action potentials (APs) were recorded using an Axopatch 200B amplifier (Axon Instruments, Union City, Calif.) in voltage-clamp mode, filtered at 2 kHz, digitized at 10 kHz (Digidata 1322A; Axon Instruments), and recorded to disk using pClamp9.0 software (Axon Instruments). […] Data were analyzed offline using Origin (OriginLab Corp., Northampton, Mass.) and Mini analysis 6.0.1 (Synaptosoft Inc., Decatur, Ga.). Each detected event was inspected visually to exclude obvious false action potentials (AP) before analysis. […] Statistical significance (p<0.05) was determined using the paired Student's t test, and mean values are expressed ±SEM.
# [6] = test system: α1A-AR mediated increased Ngn2 expression in normal neonatal neurospheres; experiment: Real time PCR of α1A-AR induced Ngn2 expression with signaling inhibitors; type: cell-based, mouse; details: one day phenylephrine treated normal neonatal neurospheres; FIG. 27
# Experimental: as §2
# Since Ngn2 mRNA expression, a major gene of neuronal differentiation, appears to be regulated by the α1A-ARs, the common a i-AR signals responsible for this gene regulation was determined. Real time PCR and inhibitors for PKC (GO6983), PI3K (LY294002), MEK (PD98059) and p38 (SB202190) were used on one day phenylephrine treated normal neonatal neurospheres. The α1A-AR mediated increased Ngn2 expression was blocked by PKC, PI3K and MEK (ERK) inhibition but not by the p38 inhibitor (FIG. 27).
# α1-ARs = experiment: Saturation ligand binding on neurosphere membranes; design: species or system mouse; details: normal embryonic and neonatal neurospheres, FIG. 19A
# Experimental: Ligand Binding. Membranes were prepared and ligand binding was performed as previously described (Rorabaugh et al., Cardiovas. Res., 65:436-445 (2005)). Saturation or competition binding used the nonselective i-AR antagonist, 2-[β-(4-hydroxyl-3-^125I-iodophenyl)ethylaminomethyl]-tetralone (^125I-HEAT) or ^125I-CYP as the radioligand, using either increasing concentration of the radiolabel or using a KD amount (100 pM) to label total α1-ARs and increasing concentrations of an non-labeled selective antagonist. Non-specific labeling was determined by adding 100 uM phentolamine (or α1-ARs) or 1 uM propranolol (for β-ARs). Bmax and KD were determined through the use of Graphpad Prism. Statistical analysis of the binding data used a one-way ANOVA followed by a Newman-Keul's post-test where p<0.05 was considered significant.
smiles,measurement,setting,value
CNC[C@H](O)c1cccc(O)c1 [Phenylephrine],effect on CAM α1A-AR neurospheres (differentiation),CAM α1A-AR neurospheres,very little effect
same,increase of α1A-AR mRNA expression,[1],two hundred-fold
same,increase of α1B-AR mRNA expression,[1],10 fold
same,mRNA expression of genes involved in neurogenesis and neuronal differentiation,[1]; normal neonatal neurospheres,induced increased mRNA expression
same,effect on α1A-KO neurospheres (differentiation),[2],increased formation of neurons
same,differentiation of normal neurospheres in proliferation medium (+EGF/FGF),[3],caused the differentiation of the neurospheres
same,differentiation of normal neurospheres in proliferation medium (+EGF/FGF),[3]; listed as Phe,induced differentiation into all three cell types
same,differentiation of neurospheres (number of live cells),[4]; differentiation media (−EGF/FGF),enhances differentiation of neurospheres
"Cl.NCC(O)c1cc(O)c(O)cc1F (centres unmarked) [6FNE, 6-fluoronorepinephrine (6FNE) hydrochloride]",action potential generation in pyramidal cells,pyramidal cells,inhibits action potential generation
same,effect on AP frequency over control conditions,"[5]; FIG. 6D, fully reversible with wash",large increase in AP frequency
same,"frequency of spontaneous action potential discharge, range","[5]; n=4, control range 0-0.7 Hz",1.8-6.5 Hz
same,"frequency of spontaneous action potential discharge, mean","[5]; n=4, mean ±SEM, control 0.3±0.1 Hz, 22±1° C.",3.5±1.1 Hz
Oc1ccc(-c2nc(-c3ccncc3)c(-c3ccc(F)cc3)[nH]2)cc1 [SB202190],block of α1A-AR mediated increased Ngn2 expression,[6],not
COc1cccc(-c2cc(=O)c3ccccc3o2)c1N [PD98059],block of α1A-AR mediated increased Ngn2 expression,[6],blocked
COc1cc2nc(N3CCN(C(=O)c4ccco4)CC3)nc(N)c2cc1OC [prazosin],block of the phenylephrine enhancement of neurosphere differentiation,[4]; differentiation media (−EGF/FGF) + phenylephrine,can be blocked
COc1ccc2c(c1)c(C1=C(c3c[nH]c4ccccc34)C(=O)NC1=O)cn2CCCN(C)C [GO6983],block of α1A-AR mediated increased Ngn2 expression,[6],blocked
"O=C1c2ccccc2CCC1CNCCc1ccc(O)c([125I])c1 (stereo not drawn) [125I-HEAT, 2-[β-(4-hydroxyl-3-^125I-iodophenyl)ethylaminomethyl]-tetralone]",Kd,α1-ARs,176 pM
